Molecular target: T1, Sialidase B (Streptococcus pneumoniae serotype 4 (strain ATCC BAA-334 / TIGR4)) (UniProt Q54727)
T1 sequence (whole entry): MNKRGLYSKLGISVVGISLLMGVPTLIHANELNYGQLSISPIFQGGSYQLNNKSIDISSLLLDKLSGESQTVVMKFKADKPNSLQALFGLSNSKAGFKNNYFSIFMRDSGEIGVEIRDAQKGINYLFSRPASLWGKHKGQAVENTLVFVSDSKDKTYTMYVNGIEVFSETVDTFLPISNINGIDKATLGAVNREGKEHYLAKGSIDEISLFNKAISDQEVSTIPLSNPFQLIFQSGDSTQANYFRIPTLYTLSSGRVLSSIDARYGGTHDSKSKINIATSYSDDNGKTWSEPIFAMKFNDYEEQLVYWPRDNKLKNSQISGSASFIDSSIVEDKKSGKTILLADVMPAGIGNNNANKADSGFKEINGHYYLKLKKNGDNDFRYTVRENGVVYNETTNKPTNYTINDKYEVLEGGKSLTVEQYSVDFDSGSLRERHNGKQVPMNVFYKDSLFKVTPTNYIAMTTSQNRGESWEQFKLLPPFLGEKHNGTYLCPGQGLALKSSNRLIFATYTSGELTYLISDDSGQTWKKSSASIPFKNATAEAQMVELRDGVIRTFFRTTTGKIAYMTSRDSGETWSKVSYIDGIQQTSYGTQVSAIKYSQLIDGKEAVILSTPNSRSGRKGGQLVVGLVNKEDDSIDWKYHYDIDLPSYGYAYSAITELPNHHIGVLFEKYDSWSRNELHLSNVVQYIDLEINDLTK
Settings: at 1 mM

Compound | inhibition
CC(=O)N[C@H]1[C@H]([C@H](O)[C@H](O)CO)OC(C(=O)O)=C[C@@H]1O [NEU5AC2EN] | 31.9%

Molecular target: not listed separately
Assay: Inhibition of Pasteurella multocida sialyltransferase 1 using Neu5Acalpha2-3GalbetapNP as substrate after 30 mins by colorimetric assay
Settings: not given

Compound | IC50
CC(=O)N[C@H]1[C@H]([C@H](O)[C@H](O)Cn2cc(C[C@H](NC(=O)[C@@H](N)CCC(=O)O)C(=O)N[C@@H](CCCCN)C(=O)N[C@@H](CCC(=O)O)C(N)=O)nn2)OC(C(=O)O)=C[C@@H]1O | > 1 mM
CC(=O)N[C@H]1[C@H]([C@H](O)[C@H](O)CO)OC(C(=O)O)=C[C@@H]1O [NEU5AC2EN] | > 1 mM

Molecular target: Sialidase A (Streptococcus pneumoniae) (UniProt P62575)
Settings: at 1 mM

Sequence of Sialidase A (Streptococcus pneumoniae) (P62575 whole entry): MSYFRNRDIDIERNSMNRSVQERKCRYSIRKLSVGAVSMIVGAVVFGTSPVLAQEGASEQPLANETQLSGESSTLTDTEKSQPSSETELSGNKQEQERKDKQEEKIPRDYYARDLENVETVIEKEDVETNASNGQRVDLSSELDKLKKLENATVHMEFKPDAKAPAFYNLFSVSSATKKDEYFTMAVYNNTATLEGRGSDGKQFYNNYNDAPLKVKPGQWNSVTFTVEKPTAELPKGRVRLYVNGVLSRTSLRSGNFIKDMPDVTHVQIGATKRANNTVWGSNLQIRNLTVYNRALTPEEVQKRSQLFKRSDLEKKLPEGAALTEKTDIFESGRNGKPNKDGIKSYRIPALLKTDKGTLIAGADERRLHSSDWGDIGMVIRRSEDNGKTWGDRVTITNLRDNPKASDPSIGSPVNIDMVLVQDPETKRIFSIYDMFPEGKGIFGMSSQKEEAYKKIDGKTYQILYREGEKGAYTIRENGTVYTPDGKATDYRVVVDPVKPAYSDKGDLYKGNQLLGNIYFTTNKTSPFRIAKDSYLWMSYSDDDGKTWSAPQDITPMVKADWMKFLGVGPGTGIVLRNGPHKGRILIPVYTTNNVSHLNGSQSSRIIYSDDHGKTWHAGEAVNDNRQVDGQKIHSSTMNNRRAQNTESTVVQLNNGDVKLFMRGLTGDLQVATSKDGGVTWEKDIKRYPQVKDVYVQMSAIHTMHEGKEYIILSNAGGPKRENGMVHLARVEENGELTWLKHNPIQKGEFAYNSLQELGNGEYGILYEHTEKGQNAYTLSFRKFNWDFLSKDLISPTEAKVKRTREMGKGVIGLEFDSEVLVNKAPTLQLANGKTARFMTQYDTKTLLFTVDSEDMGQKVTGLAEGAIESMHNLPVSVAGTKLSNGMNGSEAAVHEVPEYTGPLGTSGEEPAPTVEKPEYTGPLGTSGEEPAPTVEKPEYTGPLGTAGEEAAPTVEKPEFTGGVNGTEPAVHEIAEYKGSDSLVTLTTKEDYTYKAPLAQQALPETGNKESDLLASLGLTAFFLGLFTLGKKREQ

Compound | inhibition
CC(=O)N[C@H]1[C@H]([C@H](O)[C@H](O)CO)OC(C(=O)O)=C[C@@H]1O [NEU5AC2EN] | 99.9%

Tested on: Paenarthrobacter ureafaciens
Settings: at 0.1 mM

Compound | inhibition
CC(=O)N[C@H]1[C@H]([C@H](O)[C@H](O)CO)OC(C(=O)O)=C[C@@H]1O [NEU5AC2EN] | 95.8%

Tested on: Paenarthrobacter ureafaciens
Settings: at 1 mM

Compound | inhibition
CC(=O)N[C@H]1[C@H]([C@H](O)[C@H](O)CO)OC(C(=O)O)=C[C@@H]1O [NEU5AC2EN] | 99%

Molecular target: not listed separately
Assay: Inhibition of Arthrobacter ureafaciens sialidase using Neu5Acalpha2-3GalbetapNP as substrate after 30 mins by colorimetric assay
Design: species or system Paenarthrobacter ureafaciens
Settings: not given

Compound | IC50
CC(=O)N[C@H]1[C@H]([C@H](O)[C@H](O)CO)OC(C(=O)O)=C[C@@H]1O [NEU5AC2EN] | 0.0081 mM

Molecular target: Sialidase (Vibrio cholerae serotype O1 (strain ATCC 39315 / El Tor Inaba N16961)) (UniProt P0C6E9)
Settings: at 0.1 mM

Sequence of Sialidase (Vibrio cholerae serotype O1 (strain ATCC 39315 / El Tor Inaba N16961)) (P0C6E9 whole entry, one chain of several): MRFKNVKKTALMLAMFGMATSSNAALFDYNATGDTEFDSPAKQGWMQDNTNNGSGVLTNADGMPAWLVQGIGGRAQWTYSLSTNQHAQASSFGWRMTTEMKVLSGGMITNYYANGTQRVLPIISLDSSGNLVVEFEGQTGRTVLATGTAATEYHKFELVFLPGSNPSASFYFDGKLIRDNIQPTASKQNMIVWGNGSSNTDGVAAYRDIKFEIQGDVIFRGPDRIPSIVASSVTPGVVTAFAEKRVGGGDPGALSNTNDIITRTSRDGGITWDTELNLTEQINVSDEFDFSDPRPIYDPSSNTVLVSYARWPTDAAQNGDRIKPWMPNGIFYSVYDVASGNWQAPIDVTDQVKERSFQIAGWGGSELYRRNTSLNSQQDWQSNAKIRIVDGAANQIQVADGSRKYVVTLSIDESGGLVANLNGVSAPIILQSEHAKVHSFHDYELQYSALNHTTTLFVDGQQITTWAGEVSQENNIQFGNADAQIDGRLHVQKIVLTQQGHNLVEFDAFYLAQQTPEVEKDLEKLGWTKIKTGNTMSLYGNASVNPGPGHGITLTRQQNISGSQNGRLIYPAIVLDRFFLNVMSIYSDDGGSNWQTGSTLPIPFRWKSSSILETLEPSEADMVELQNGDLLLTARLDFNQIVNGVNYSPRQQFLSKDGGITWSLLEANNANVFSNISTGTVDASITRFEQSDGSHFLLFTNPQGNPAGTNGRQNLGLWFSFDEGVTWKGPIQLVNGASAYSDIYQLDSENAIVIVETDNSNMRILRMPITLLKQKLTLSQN

Compound | inhibition
CC(=O)N[C@H]1[C@H]([C@H](O)[C@H](O)CO)OC(C(=O)O)=C[C@@H]1O [NEU5AC2EN] | 88.2%

Molecular target: not listed separately
Assay: Inhibition of Bifidobacterium longum subsp. infantis ATCC 15697 sialidase 2 (BiNanH2) using Neu5Acalpha2-3GalbetapNP as substrate after 30 mins by colorimetric assay
Settings: not given

Compound | IC50
CC(=O)N[C@H]1[C@H]([C@H](O)[C@H](O)Cn2cc(C[C@H](NC(=O)[C@@H](N)CCC(=O)O)C(=O)N[C@@H](CCCCN)C(=O)N[C@@H](CCC(=O)O)C(N)=O)nn2)OC(C(=O)O)=C[C@@H]1O | > 1 mM

Molecular target: T2, Sialidase (Clostridium perfringens) (UniProt P10481)
T2 sequence (whole entry): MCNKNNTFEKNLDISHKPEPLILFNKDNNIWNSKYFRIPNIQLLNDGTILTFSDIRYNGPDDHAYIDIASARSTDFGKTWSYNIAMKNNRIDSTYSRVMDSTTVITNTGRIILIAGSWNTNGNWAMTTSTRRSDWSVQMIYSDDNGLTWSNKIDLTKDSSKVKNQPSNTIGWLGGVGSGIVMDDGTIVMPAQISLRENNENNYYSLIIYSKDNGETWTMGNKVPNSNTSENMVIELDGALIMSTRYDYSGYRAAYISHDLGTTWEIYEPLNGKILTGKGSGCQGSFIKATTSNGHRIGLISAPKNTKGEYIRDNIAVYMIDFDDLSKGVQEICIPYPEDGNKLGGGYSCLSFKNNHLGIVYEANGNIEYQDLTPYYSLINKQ
Settings: at 0.1 mM

Compound | inhibition
CC(=O)N[C@H]1[C@H]([C@H](O)[C@H](O)CO)OC(C(=O)O)=C[C@@H]1O [NEU5AC2EN] | 72.1%

Tested on: Pasteurella multocida
Settings: at 1 mM

Compound | inhibition
CC(=O)N[C@H]1[C@H]([C@H](O)[C@H](O)CO)OC(C(=O)O)=C[C@@H]1O [NEU5AC2EN] | 9.3%

Molecular target: T3, Neuraminidase C (Streptococcus pneumoniae) (UniProt A0A0B7LH44)
T3 sequence (whole entry): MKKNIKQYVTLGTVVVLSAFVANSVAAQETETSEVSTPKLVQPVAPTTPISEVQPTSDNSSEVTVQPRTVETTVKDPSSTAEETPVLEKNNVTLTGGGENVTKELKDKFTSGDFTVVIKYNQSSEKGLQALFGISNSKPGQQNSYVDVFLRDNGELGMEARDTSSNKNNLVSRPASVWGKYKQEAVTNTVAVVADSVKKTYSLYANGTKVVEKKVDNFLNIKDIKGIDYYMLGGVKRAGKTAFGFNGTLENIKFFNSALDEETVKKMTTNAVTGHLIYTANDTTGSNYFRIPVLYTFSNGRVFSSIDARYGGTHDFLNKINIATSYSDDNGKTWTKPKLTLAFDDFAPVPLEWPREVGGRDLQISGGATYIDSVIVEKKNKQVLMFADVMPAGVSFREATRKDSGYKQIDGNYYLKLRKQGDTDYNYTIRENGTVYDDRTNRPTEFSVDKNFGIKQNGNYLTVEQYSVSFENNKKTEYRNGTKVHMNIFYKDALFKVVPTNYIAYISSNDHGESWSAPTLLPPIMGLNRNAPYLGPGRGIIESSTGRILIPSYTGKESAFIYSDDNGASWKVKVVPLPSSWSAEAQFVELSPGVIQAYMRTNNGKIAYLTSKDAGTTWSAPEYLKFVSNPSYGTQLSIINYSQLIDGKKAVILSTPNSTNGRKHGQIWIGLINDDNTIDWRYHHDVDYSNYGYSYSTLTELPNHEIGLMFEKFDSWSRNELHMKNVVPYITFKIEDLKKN
Settings: at 0.1 mM

Compound | inhibition
CC(=O)N[C@H]1[C@H]([C@H](O)[C@H](O)CO)OC(C(=O)O)=C[C@@H]1O [NEU5AC2EN] | 6.3%

Molecular target: T4, Neuraminidase C (Streptococcus pneumoniae, UniProt A0A0B7LH44)
T4 sequence (A0A0B7LH44 whole entry): T3 sequence (whole entry)
Assay: Inhibition of Streptococcus pneumoniae sialidase NanC using Neu5Acalpha2-3GalbetapNP as substrate after 30 mins by colorimetric assay
Settings: not given

Compound | IC50
CC(=O)N[C@H]1[C@H]([C@H](O)[C@H](O)Cn2cc(C[C@H](NC(=O)[C@@H](N)CCC(=O)O)C(=O)N[C@@H](CCCCN)C(=O)N[C@@H](CCC(=O)O)C(N)=O)nn2)OC(C(=O)O)=C[C@@H]1O | > 1 mM
CC(=O)N[C@H]1[C@H]([C@H](O)[C@H](O)CO)OC(C(=O)O)=C[C@@H]1O [NEU5AC2EN] | > 1 mM

Tested on: Pasteurella multocida
Settings: at 0.1 mM

Compound | inhibition
CC(=O)N[C@H]1[C@H]([C@H](O)[C@H](O)CO)OC(C(=O)O)=C[C@@H]1O [NEU5AC2EN] | 2.1%

Molecular target: T2, Sialidase (Clostridium perfringens)
Settings: at 1 mM

Compound | inhibition
CC(=O)N[C@H]1[C@H]([C@H](O)[C@H](O)CO)OC(C(=O)O)=C[C@@H]1O [NEU5AC2EN] | 92.6%

Molecular target: T1, Sialidase B (Streptococcus pneumoniae serotype 4 (strain ATCC BAA-334 / TIGR4))
Settings: at 0.1 mM

Compound | inhibition
CC(=O)N[C@H]1[C@H]([C@H](O)[C@H](O)CO)OC(C(=O)O)=C[C@@H]1O [NEU5AC2EN] | 2.7%

Molecular target: Sialidase (Vibrio cholerae serotype O1 (strain ATCC 39315 / El Tor Inaba N16961)) (UniProt P0C6E9)
Settings: at 1 mM

Compound | inhibition
CC(=O)N[C@H]1[C@H]([C@H](O)[C@H](O)CO)OC(C(=O)O)=C[C@@H]1O [NEU5AC2EN] | 94.5%

Molecular target: T3, Neuraminidase C (Streptococcus pneumoniae)
Settings: at 1 mM

Compound | inhibition
CC(=O)N[C@H]1[C@H]([C@H](O)[C@H](O)Cn2cc(C[C@H](NC(=O)[C@@H](N)CCC(=O)O)C(=O)N[C@@H](CCCCN)C(=O)N[C@@H](CCC(=O)O)C(N)=O)nn2)OC(C(=O)O)=C[C@@H]1O | 9.8%
CC(=O)N[C@H]1[C@H]([C@H](O)[C@H](O)CO)OC(C(=O)O)=C[C@@H]1O [NEU5AC2EN] | 23.7%

Molecular target: Sialidase A (Streptococcus pneumoniae) (UniProt P62575)
Settings: at 0.1 mM

Compound | inhibition
CC(=O)N[C@H]1[C@H]([C@H](O)[C@H](O)CO)OC(C(=O)O)=C[C@@H]1O [NEU5AC2EN] | 94.9%
